Patent US9067905B2, “Sulphone compounds and methods of making and using same” (Zafgen, Inc., priority 2009, dated 2015)
Where a name gives a salt, the structure may show the parent alone.

These compounds were tested against T1, recombinant human MetAP2 (Homo sapiens, UniProt P50579) (assay: Inhibition of recombinant human MetAP2 activity (Amplex red fluorescence assay)). Conditions: manganese Flag-MetAP2, 0.75 mM Methionine-Alanine-Serine substrate, 30 minutes at 25° C., pH 7.5, 1% DMSO.
T1 construct: Flag; made in house; host or cells: Sf9 insect cells
T1 sequence (P50579 whole entry): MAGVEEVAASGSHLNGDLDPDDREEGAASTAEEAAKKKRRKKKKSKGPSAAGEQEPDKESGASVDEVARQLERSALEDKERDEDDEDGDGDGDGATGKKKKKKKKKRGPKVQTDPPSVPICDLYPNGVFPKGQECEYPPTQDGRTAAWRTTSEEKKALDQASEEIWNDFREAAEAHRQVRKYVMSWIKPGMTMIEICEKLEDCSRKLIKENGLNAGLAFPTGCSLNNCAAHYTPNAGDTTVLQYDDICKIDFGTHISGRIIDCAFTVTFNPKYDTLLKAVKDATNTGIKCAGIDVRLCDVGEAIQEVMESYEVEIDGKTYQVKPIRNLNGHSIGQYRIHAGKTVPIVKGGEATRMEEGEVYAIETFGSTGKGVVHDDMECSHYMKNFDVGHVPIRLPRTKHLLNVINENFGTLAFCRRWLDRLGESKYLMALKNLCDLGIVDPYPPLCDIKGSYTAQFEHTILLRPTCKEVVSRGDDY
Assay type: biochemical
Method: Compounds are tested for their capacity to inhibit recombinant human MetAP2 activity using the following assay.
Human recombinant Flag-MetAP2 expressed in Sf9 cells followed by affinity purification and EDTA treatment to remove endogenous active site cation is dialysed against MnCl2 to produce the manganese enzyme used in the assay. The assay is carried out for 30 minutes at 25° C. in 50 mM HEPES buffer containing 100 mM NaCl, pH 7.5 the presence of 0.75 mM Methionine-Alanine-Serine (MAS) substrate and 50 μg/ml amino acid oxidase using a dilution of purified MetAP2 giving approximately 50,000 RFU control activity. Cleavage of the substrate by MetAP2 and oxidation of free methionine by amino acid oxidase is detected and quantified using fluorescence generated by Amplex red (10-acetyl-3,7-dihydroxyphenoxazine) in combination with horseradish peroxidase which detects H2O2 released during the oxidation step. The fluorescent signal is detected using a multiwell fluorimeter. Compounds are diluted in DMSO prior to addition to assay buffer, the final DMSO concentration in the assay being 1%.
The IC50 is defined as the concentration at which a given compound achieves 50% inhibition of control. IC50 values are calculated using the XLfit software package (version 2.0.5).

Compared with `NCCOc1c(-c2ccoc2)ccc(CS(=O)(=O)c2ccccc2)c1C(=O)O` [2-(2-Aminoethoxy)-6-(benzenesulphonylmethyl)-3-(furan-3-yl)benzoic acid hydrochloride], `COCCOc1c(-c2ccoc2)ccc(CS(=O)(=O)c2ccccc2)c1C(=O)O` [6-(Benzenesulphonylmethyl)-3-(furan-3-yl)-2-(2-methoxyethoxy)-benzoic acid] is higher in IC50: under 0.2 µM for the first, over 2 µM for the second. The first is the more potent here.

`CCN(CC)CCCc1ccccc1S(=O)(=O)Cc1ccc(-c2ccoc2)c(OC)c1C(=O)O` [6-[2-(3-Diethylaminopropyl)benzenesulphonylmethyl]-3-(furan-3-yl)-2-methoxybenzoic acid] and `COc1c(-c2ccoc2)ccc(CS(=O)(=O)c2cccc(Cl)c2)c1C(=O)O` [6-(3-Chlorobenzenesulphonylmethyl)-3-(furan-3-yl)-2-methoxybenzoic acid] cannot be ordered by IC50: under 0.2 µM for the first, under 0.2 µM for the second.

First: COc1c(Br)ccc(CS(=O)(=O)c2ccccc2)c1C(=O)O [6-(Benzenesulphonylmethyl)-3-bromo-2-methoxybenzoic acid]
Second: COc1c(-c2ccsc2)ccc(CS(=O)(=O)c2ccccc2)c1C(=O)O [6-(Benzenesulphonylmethyl)-2-methyoxy-3-(thien-3-yl)benzoic acid]
The IC50 of the first is lower: 0.2 to 2 µM for the first, over 2 µM for the second. The first is the more potent here.

First: COc1c(-c2ccoc2)ccc(CS(=O)(=O)N2CCC(O)C2)c1C(=O)O (stereo not drawn) [3-(Furan-3-yl)-6-(3-hydroxypyrrolidine-1-ylsulphonylmethyl)-2-methoxybenzoic acid]
Second: COc1c(-c2cccnc2)ccc(CS(=O)(=O)c2ccccc2)c1C(=O)O [6-(Benzenesulphonylmethyl)-2-methoxy-3-(3-pyridyl)benzoic acid]
The IC50 of the first is lower: 0.2 to 2 µM for the first, over 2 µM for the second.

For `Cc1occc1-c1ccc(CS(=O)(=O)c2ccccc2)c(C(=O)O)c1` [2-(Benzenesulphonylmethyl)-5-(2-methylfuran-3-yl)benzoic acid], the IC50 was 0.2 to 2 µM.
